Data published in patent US5508311A, “Aliphatic propargylamines as selective MAO-B inhibitors and as neuroprotective agents” (University of Saskatchewan, priority 1993, dated 1996).
Counter-ions that a name gives are not always drawn. Like-named read-outs stand apart in the source and are kept apart here.

What was measured:
[1] = test system: monoamine oxidase; test: Inhibition of rat liver monoamine oxidase deamination of dopamine (DA, mixed-type MAO A and B substrate) in vitro; type: biochemical; details: substrate DA (5 × 10^-4 M), average of at least 3 independent experiments
Experimental: (§1) The aliphatic propargylamine inhibitors (from 1×10^-10 M to 1×10^-4 M) were preincubated with the MAO for 20 min. at ambient room temperature and then the residual enzyme activities were determined by addition of the substrates, followed by further incubation at 37° C. for 30 min. The enzymatic reactions were terminated by the addition of citric acid and the aldehyde products were extracted with toluene: ethyl acetate (1:1, v/v) and the radio-activities assessed in a scintillation counter.

[2] = biological target: T1, MAO-B (Rattus norvegicus, UniProt P19643); test: biochemical; type: biochemical
T1 sequence (P19643 1-520): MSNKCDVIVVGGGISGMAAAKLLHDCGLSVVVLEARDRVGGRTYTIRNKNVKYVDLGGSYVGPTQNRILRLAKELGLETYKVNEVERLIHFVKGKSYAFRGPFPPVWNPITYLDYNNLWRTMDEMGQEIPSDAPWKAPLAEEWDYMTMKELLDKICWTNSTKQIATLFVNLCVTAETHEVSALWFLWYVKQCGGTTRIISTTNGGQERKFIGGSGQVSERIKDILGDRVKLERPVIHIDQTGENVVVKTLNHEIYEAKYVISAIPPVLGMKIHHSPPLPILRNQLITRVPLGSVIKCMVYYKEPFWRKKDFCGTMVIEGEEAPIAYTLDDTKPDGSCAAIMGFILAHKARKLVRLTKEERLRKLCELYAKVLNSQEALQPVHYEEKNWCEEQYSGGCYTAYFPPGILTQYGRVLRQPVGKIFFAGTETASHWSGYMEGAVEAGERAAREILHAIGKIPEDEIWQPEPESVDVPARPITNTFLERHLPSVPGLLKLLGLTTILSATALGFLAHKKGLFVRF
Experimental: as §1

[3] = biological target: T2, MAO-A (Rattus norvegicus, UniProt P21396); test: biochemical; type: biochemical
T2 sequence (P21396 1-526): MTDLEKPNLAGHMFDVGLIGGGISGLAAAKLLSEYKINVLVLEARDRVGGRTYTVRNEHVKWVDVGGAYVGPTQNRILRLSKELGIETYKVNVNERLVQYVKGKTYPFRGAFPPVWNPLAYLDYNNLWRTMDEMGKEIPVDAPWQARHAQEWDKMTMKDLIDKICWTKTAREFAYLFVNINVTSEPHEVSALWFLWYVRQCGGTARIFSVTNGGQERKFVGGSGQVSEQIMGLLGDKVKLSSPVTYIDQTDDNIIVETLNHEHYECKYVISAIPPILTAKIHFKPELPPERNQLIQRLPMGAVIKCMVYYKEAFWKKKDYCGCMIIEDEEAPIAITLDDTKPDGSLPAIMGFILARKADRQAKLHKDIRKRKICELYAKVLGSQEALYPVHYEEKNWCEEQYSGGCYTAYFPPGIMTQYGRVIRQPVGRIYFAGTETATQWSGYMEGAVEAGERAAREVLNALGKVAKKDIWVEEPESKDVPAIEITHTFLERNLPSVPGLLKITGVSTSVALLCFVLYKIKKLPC
Experimental: as §1

[4] = biological target: T3, MAO-B (Mus musculus, UniProt Q8BW75); test: MAO-B activity in the mouse brain after oral administration (substrate PE); type: in vivo; details: for Relative activity PE: oral 10 mg/Kg, 2 hours, PE (1.9 × 10^-5 M), mean ± standard error, saline = 100
T3 construct: MAO activities in the mouse brain after; from tissue
T3 sequence (Q8BW75 1-520): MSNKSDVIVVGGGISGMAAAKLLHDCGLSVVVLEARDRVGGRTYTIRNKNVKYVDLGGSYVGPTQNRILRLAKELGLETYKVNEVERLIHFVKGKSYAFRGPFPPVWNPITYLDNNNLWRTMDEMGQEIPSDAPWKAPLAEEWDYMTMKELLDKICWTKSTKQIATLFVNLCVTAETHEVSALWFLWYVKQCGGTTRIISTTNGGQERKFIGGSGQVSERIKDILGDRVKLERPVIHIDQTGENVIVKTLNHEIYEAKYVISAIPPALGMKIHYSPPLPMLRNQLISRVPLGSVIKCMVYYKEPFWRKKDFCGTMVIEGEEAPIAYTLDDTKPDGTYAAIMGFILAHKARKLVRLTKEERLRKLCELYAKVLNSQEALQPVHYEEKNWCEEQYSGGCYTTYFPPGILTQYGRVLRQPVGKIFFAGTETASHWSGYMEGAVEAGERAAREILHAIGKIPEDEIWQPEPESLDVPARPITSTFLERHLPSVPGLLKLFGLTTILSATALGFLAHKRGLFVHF
Experimental: (§2) Table 3 indicates the MAO activities in the mouse brain following oral administration of the aliphatic propargylamines.
(§3) of each compound. Striata were dissected from the brain two hours after
(§4) the administration of the drugs. MAOA and MAOB activities were determined
Striata were dissected from the brain two
hours after oral administration of the drugs. MAOB activities were then
determined immediately. The values were estimated from doseresponse

[5] = biological target: T4, MAO-A (Mus musculus, UniProt Q64133); type: in vivo
T4 construct: MAO activities in the mouse brain after; from tissue
T4 sequence (Q64133 1-526): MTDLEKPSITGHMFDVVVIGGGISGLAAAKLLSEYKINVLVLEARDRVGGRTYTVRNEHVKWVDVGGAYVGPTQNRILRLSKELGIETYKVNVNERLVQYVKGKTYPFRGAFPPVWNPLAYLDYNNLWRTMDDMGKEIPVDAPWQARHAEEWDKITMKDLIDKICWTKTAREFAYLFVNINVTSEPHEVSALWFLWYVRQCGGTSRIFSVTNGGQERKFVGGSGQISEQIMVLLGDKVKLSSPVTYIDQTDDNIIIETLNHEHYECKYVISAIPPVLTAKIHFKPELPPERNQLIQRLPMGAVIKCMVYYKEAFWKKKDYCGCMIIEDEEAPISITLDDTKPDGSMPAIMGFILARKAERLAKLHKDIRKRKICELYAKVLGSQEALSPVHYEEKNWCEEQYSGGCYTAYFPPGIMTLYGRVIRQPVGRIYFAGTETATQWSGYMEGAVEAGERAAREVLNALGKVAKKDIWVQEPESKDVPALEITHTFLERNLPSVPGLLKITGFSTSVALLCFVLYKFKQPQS
Experimental: as §2, §3, §4

[6] = biological target: T4, MAO-A; test: in vivo; details: ip, read-out: 5-HT ID50
Experimental: (§5) Albino Swiss mice were used in this study. The animals were injected intraperitoneally with different doses of the aliphatic propargylamines in 100 μL saline.
(§6) 0.5, 1, 2, 5, 10, 20, 50, 100 mg/Kg. Striata were dissected from the brai
(§7) two hours after i.p. administration of the drugs. MAOA and MAOB activitie
(§8) were determined immediately. The values were estimated from doseresponse

[7] = biological target: T3, MAO-B; test: in vivo; type: in vivo; details: for Ratio MAO-A/MAO-B: 120 min; for ED50: read-out: PE ID50
Experimental: as §5, §6, §7, §8

[8] = substrate PE (1.9 × 10^-5 M), rat liver MAO, in vitro, average of at least 3 independent experiments
[9] = substrate 5-HT (5 × 10^-4 M), rat liver MAO, in vitro, average of at least 3 independent experiments
[10] = rat, liver mitochondrial membranes
[11] = ID50 i.p. in mice versus IC50 in vitro
[12] = mouse, ip, 2 hours after administration, […], estimated from dose response curves

How did the “DA IC50” value [1] turn out when C#CCN(C)CCCC(=O)O [Example 3-CP-MP, N-(3-Carboxy-1-propyl)-N-methylproparglamine oxalate] was run?
The value was “inactive”.

And the “PE IC50” value [2, 8]?
Its value is “inactive”.

And the “5-HT IC50” value [3, 9]?
Its value is “inactive”.

Which results are given for C#CCN(C)C(C)CCCCCCCCCC.Cl (stereo not drawn) [Example 2-DdMP, N-(2-dodecyl)-N-methylpropargylamine-HCl]?
IC50 [1]: 0.3 µM; Ratio MAO-A/MAO-B [2, 10]: 50; IC50 [2, 8]: 0.04 µM; IC50 ([3]; read-out: 5-HT IC50): 2 µM; effectiveness in blocking MAO-B activity in vivo after acute oral administration (in words) ([4]; mouse, oral): less potent at inhibiting MAO-B activity in vivo after acute administration; Relative activity PE [4]: 64 ± 8%; Relative activity 5-HT ([5]; mouse, in vivo, po, 10 mg/kg): 107 ± 14; ED50 ([6]; 2 h): 60 mg/kg; MAO-B ID50 (mg/Kg) / IC50 (1 × 10^-6 M) ([7]; mouse, in vivo, ip): 100; Ratio MAO-A/MAO-B ([7]; mouse, in vivo, ip): 15; ED50 ([7]; mouse, ip, 2 h): 4 mg/kg

What does the source list for C#CCN(C)C(CC)CC.O=C(O)C(=O)O [Example M-3-PP, N-Methyl-N-(3-pentyl)propargylamine oxalate]?
Ratio MAO-A/MAO-B [2, 10]: 10; IC50 ([2]; read-out: PE IC50): 0.2 µM; IC50 [3, 9]: 2 µM; ED50 ([6]; 2 h): 12 mg/kg; MAO-B ID50 (mg/Kg) / IC50 (1 × 10^-6 M) [7, 11]: 10 (mg/Kg)/(1 × 10^-6 M); Ratio MAO-A/MAO-B ([7]; mouse, in vivo, ip): 12; ED50 [7, 12]: 1 mg/kg

C#CCN(C)CCCCCCO.Cl [Example 6-OH-Hx1MP, N-(6-Hydroxy-1-hexyl)-N-methylpropargylamine-HCl] was tested. Which IC50 [2, 8] did it give?
Its IC50 is 100 µM.

What about the “5-HT IC50” value [3, 9] of the same compound?
Its value is “inactive”.

What does the source list for C#CCCN(C)C(C)CC.O=C(O)C(=O)O (stereo not drawn) [Example 3-BuBuM, N-(3-Butynyl)-N-(2-butyl)methylamine oxalate salt]?
PE IC50 [2]: inactive; 5-HT IC50 [3, 9]: inactive

With C#CCN(C)CCCCCCC.Cl [Example 1-HMP, N-(1-Heptyl)-N-methylpropargylamine hydrochloride] as the compound, how does the “Ratio MAO-A/MAO-B” value ([2]; ratio of IC50 values, in vitro) read?
The value was 20.

And the IC50 ([2]; read-out: PE IC50)?
Its IC50 is 2 µM.

And the IC50 [3, 9]?
The IC50 was 40 µM.

And the “Relative activity PE” value [4]?
Its value is 118 ± 14%.

And the “Relative activity 5-HT” value ([5]; oral 10 mg/Kg, 2 hours, 5-HT (5 × 10^-4 M), mean ± standard error, saline = 100)?
The value was 123 ± 16%.

What about the ED50 ([6]; 2 hours after administration, 5-HT 5 × 10^-4 M, estimated from dose response curves) of the same compound?
Its ED50 is 100 mg/kg.

What about the “MAO-B ID50 (mg/Kg) / IC50 (1 × 10^-6 M)” value [7, 11] of the same compound?
The value was 7.5 (mg/Kg)/(1 × 10^-6 M).

What about the ED50 [7, 12] of the same compound?
The ED50 was 15 mg/kg.

What about the “Ratio MAO-A/MAO-B” value ([7]; ratio of ID50 values, i.p.) of the same compound?
Its value is 7.

For C#CCN(CC)C(C)CC (stereo not drawn) [Example 2-BuEP, N-(2-Butyl)-N-ethylpropargylamine hydrochloric salt], which “PE IC50” value [2, 8] is on record?
Its value is “inactive”.

And the “5-HT IC50” value [3, 9]?
Its value is “inactive”.
